We go through two molecules from patent US20260174786A1, “A NITROGEN-CONTAINING SPIROCYCLIC COMPOUND, PHARMACEUTICAL COMPOSITION AND USE THEREOF” (Prime Gene Therapeutics Co., Ltd., priority 2022, published 2026).

The target in one data set is T1, hTRPV3 (Homo sapiens, UniProt Q8NET8).
T1 construct: expressed in transfected cells; host or cells: HEK-293
T1 sequence (Q8NET8 1-790): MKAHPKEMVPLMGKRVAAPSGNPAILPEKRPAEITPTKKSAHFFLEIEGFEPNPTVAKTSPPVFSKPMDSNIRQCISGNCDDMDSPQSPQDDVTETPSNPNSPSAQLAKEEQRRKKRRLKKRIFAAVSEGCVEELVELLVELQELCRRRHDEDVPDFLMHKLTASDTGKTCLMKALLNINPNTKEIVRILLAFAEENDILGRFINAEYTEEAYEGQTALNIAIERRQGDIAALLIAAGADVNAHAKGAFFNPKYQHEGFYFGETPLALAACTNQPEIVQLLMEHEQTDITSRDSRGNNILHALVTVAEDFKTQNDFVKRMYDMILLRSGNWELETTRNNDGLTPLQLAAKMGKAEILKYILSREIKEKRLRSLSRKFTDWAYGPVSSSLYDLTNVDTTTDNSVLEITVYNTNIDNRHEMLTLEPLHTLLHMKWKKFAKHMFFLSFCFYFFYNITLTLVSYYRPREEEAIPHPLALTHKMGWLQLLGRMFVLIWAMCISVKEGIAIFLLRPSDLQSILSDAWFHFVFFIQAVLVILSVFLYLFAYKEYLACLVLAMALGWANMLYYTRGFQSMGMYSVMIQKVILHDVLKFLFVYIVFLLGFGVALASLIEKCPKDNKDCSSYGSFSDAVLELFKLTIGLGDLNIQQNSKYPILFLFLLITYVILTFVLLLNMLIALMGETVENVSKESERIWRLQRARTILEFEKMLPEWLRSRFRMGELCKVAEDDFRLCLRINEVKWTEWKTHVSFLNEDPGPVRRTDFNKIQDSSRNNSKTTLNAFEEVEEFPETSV
Nature of the data set: Whole cell patch clamp inhibition rate test on HEK-293 cells instantaneously expressing TRPV3. The format is cell-based. The note with it: HEK293. In short, it runs like this:
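HEK-293 cells transiently transfected with TRPV3, recorded next-but-one day by whole-cell patch clamp at room temperature: holding −80 mV, ramp −100 to 100 mV over 100 ms every 5 s, peak current monitored. Ascending concentrations perfused, 5 min each; each cell its own control, at least two cells per concentration.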
Background: In patch-clamp work, channel activity is measured electrically.

Data set [1] can be described thus: Parallel artificial membrane permeability test (Lipid PAMPA). The format is in vitro ADME. The settings on record: for recovery at 16 h, 10 μM: pH 7.4, test concentration 10 μM, read-out: rate of recovery %; for −LOG Pe / Papp at 16 h, 10 μM: test concentration 10 μM; for Papp at 16 h, 10 μM: pH 7.4, 16 hours, read-out: Effective penetration rate Pe. Here is the method: 1. Preparing the test compound in 10 mM DMSO and diluting 1000 fold to 10 μM with PBS. 2. Ultrasonic treating lecithin in dodecane at a rate of 18 mg/ml. 3. Adding 300 μL/well of 10 μM test compound solution into the donor chamber (bottom) in triplicate. 4. Adding 5 μL/well lecithin/dodecane to the receptor chamber (top), and then adding 300 μL/well PBS (pH=7.4) to the receptor chamber within 10 minutes. 5. Transferring 50 μL of 10 μM test compound onto a sample plate containing 200 μL of cold methanol, with IS * being C0. 6. Inserting the receptor chamber into the donor chamber and incubating at 25° C. for 16 hours. 7. After 16 hours of incubation, transferring 50 μL from the receptor and donor compartments to a sample plate containing 200 μL of cold methanol and IS *. 8. Centrifuging the sample plate at 4° C. and 3220 g for 40 minutes. 9. Transferring 100 μL of supernatant to an analysis plate containing an appropriate volume of H2O for LC-MS/MS analysis. 10. Data analysis.
(In general: The PAMPA barrier holds no transporters, so it reflects passive diffusion.)

Where [2] appears, read: hTRPV3, single concentration 0.3 μM.

For orientation: inhibition means the change of the read-out against control, counted positive when it falls. On hTRPV3 (hTRPV3, 0.3 μM), `O=C(c1ccc(F)cn1)N1CC[C@@]2(C[C@@H](O)c3cc(-c4ccccc4C4CC4)ccc32)C1` [Example 21, ((1S,3R)-5-(2-cyclopropylphenyl)-3-hydroxy-2,3-dihydrospiro[indene-1,3′-pyrrolidine]-1′-yl)(5-fluoropyridin-2-yl)ketone] came in with an inhibition at 0.3 µM of 89.6%. The inhibition at 0.3 µM against hTRPV3 (setting [2]) lay within 70 to 100%. For the same molecule, in data set [1], the recovery at 16 h, 10 μM came out at 18.8%; the “−LOG Pe” value came to 4.79; the Papp at 16 h, 10 μM was found to be 16.3 ×10⁻⁶ cm/s.
For the molecule `O=C(c1ccc(F)cn1)N1CCC2(CC(O)c3cc(-c4ccccc4C4CC4)ccc32)C1` (stereo not drawn) [Example 15, (5-(2-cyclopropylphenyl)-3-hydroxy-2,3-dihydrospiro[indene-1,3′-pyrrolidine]-1′-yl)(5-fluoropyridin-2-yl) ketone], the inhibition at 0.3 µM at hTRPV3 (setting [2]) lay in the range of 70 to 100%. Also, in data set [1], the recovery at 16 h, 10 μM is 16.9%; the “−LOG Pe” value amounted to 4.85; the Papp at 16 h, 10 μM turned out to be 14.1 ×10⁻⁶ cm/s.
